Laboratory results taken from patent US12410153B2, “Compounds, compositions and methods” (Avalo Therapeutics, Inc., priority 2014, dated 2025).
Where two headings read alike, the source gives them in different places.

Assay: Repeated once-daily oral dosing with food (Days 1-7) in healthy subjects, PK and PD
Assay type: in vivo, human
Settings: for AUC(0-t) / Cmax / Vd/F / Tmax / AUC(0-inf) / half-life: both sexes, human, plasma, oral; for Cmax: read-out: Cmax, Mean (SD); for AUC(0-inf): read-out: AUCinf, Mean (SD)
Description: A randomized, double-blind, placebo-controlled, parallel-dose group in-patient study is conducted to investigate the pharmacodynamic (PD) effects of crystalline Form II of Compound (I) in healthy subjects.
The study is designed as a three-part, sequential study. The sequential nature of the study ensures that a range of doses are investigated first in a young, healthy population (Part 1) before proceeding to higher doses in the healthy population and the comparator populations (intermediate age and elderly) (Parts 2 and 3). For the purposes of this study, “young” refers to a subject who is 18 to 45 years of age, “intermediate age” refers to a subject who is 46 to 64 years of age, and “elderly” refers to a subject who is 65 years of age or older.
After a screening period of up to 21 days (Days −23 to −3), 16 healthy, young male and female subjects are randomly assigned to a dose group as shown in Table 9.
Each parallel dose group is balanced for gender (approximately equal number of males and females). The randomized subjects are domiciled from Day −1 through Day 8. On Day −1, the subjects receive placebo tablets in the fed state and undergo ambulatory blood pressure monitoring (ABPM) and safety assessments to establish time-matched baselines. On Days 1-7, the subjects receive the study drug in the fed state and undergo safety, pharmacokinetic (PK) and pharmacodynamics (PD) assessments. On Days 8-11, follow-up PK and safety assessments are performed.
Safety assessments include Clinician-Administered Dissociative States Scale (CADSS), Columbia-Suicide Severity Rating Scale (C-SSRS), concomitant medication, adverse event (AE) and vital sign assessments. In PK assessments, blood samples are taken and analyzed to determine PK parameters such as Cmax, Tmax, AUC0-24, and t1/2. PD assessments include ABPM, plasma brain-derived neurotrophic factor (BDNF) measurements, and Profile of Mood States (POMS) assessments.
After a screening period of up to 21 days (Days −23 to −3), 16 subjects (8 healthy, young male and female subjects, and 8 healthy, intermediate age male and female subjects) are randomly assigned to a dose group as shown in Table 10.
After a screening period of up to 21 days (Days −23 to −3), 16 subjects (8 healthy, young male and female subjects, and 8 healthy, elderly male and female subjects) are randomly assigned to a dose group as shown in Table 11.

[1] = 8 mg, young subjects, 8 mg, Day 7
[2] = 12 mg, intermediate age, 12 mg, Day 7

Cc1ccc(COC(=O)N2CC[C@H](CNc3ncccn3)[C@H](F)C2)cc1 [Form II, 4-methylbenzyl (3S, 4R)-3-fluoro-4-[(pyrimidin-2-ylamino)methyl] piperidine-1-carboxylate]
average 7-day plasma BDNF values compared to placebo (16 and 20 mg): trend for an increase
apparent oral clearance lower in female vs male subjects (Day 7): approximately 15%
average Cmax higher in intermediate age and elderly subgroups vs young (Day 7): approximately 30%
t½ higher in female vs male subjects (Day 7): approximately 16%
mean plasma concentrations higher in female vs male subjects (Day 7, 2 to 24 hours postdose): approximately 20%
Cmax and AUC vs dose (Days 1 and 7, 8 to 20 mg): approximately dose-proportional
average 24 hour and daytime SBP and DBP (all doses compared to placebo, maximal by Day 4): increased
AUC(0-t) (8 mg, young subjects, 8 mg, Day 1, read-out: AUC0-24, Mean (SD)): 1500 ng·h/mL
AUC(0-t) (8 mg, young subjects, 8 mg, Day 1, read-out: AUClast, Mean (SD)): 1490 ng·h/mL
Cmax (8 mg, young subjects, 8 mg, Day 1): 179 ng/mL
Vd/F (8 mg, young subjects, 8 mg, Day 1, read-out: Vz/F, Mean (SD)): 101 L
Tmax (8 mg, young subjects, 8 mg, Day 1, read-out: tmax, Mean (SD)): 2.17 h
Tmax (8 mg, young subjects, 8 mg, Day 1, read-out: tmax, Median): 2 h
AUC(0-t) (8 mg, young subjects, 8 mg, Day 7, read-out: AUC0-24, Mean (SD)): 2400 ng·h/mL
AUC(0-inf) [1]: 4110 ng·h/mL
AUC(0-t) (8 mg, young subjects, 8 mg, Day 7, read-out: AUClast, Mean (SD)): 3770 ng·h/mL
Cmax [1]: 224 ng/mL
half-life (8 mg, young subjects, 8 mg, Day 7, read-out: t1/2, Mean (SD) (converted)): 17.2 h
Tmax (8 mg, young subjects, 8 mg, Day 7, read-out: tmax, Mean (SD)): 2.75 h
Tmax (8 mg, young subjects, 8 mg, Day 7, read-out: tmax, Median): 3 h
half-life (12 mg, Day 7, read-out: average t½, range across age groups): 20 to 28 h
AUC(0-t) (12 mg, elderly, 12 mg, Day 1, read-out: AUC0-24, Mean (SD)): 2130 ng·h/mL
AUC(0-t) (12 mg, elderly, 12 mg, Day 1, read-out: AUClast, Mean (SD)): 2100 ng·h/mL
Cmax (12 mg, elderly, 12 mg, Day 1): 229 ng/mL
Vd/F (12 mg, elderly, 12 mg, Day 1, read-out: Vz/F, Mean (SD)): 164 L
Tmax (12 mg, elderly, 12 mg, Day 1, read-out: tmax, Mean (SD)): 1.93 h
Tmax (12 mg, elderly, 12 mg, Day 1, read-out: tmax, Median): 1.75 h
AUC(0-t) (12 mg, elderly, 12 mg, Day 7, read-out: AUC0-24, Mean (SD)): 4520 ng·h/mL
AUC(0-inf) (12 mg, elderly, 12 mg, Day 7): 10300 ng·h/mL
AUC(0-t) (12 mg, elderly, 12 mg, Day 7, read-out: AUClast, Mean (SD)): 9140 ng·h/mL
Cmax (12 mg, elderly, 12 mg, Day 7): 349 ng/mL
Vd/F (12 mg, elderly, 12 mg, Day 7, read-out: Vss/F, Mean (SD)): 111 L
half-life (12 mg, elderly, 12 mg, Day 7, read-out: t1/2, Mean (SD) (converted)): 28.3 h
Tmax (12 mg, elderly, 12 mg, Day 7, read-out: tmax, Mean (SD)): 2.26 h
Tmax (12 mg, elderly, 12 mg, Day 7, read-out: tmax, Median): 2 h
AUC(0-t) (12 mg, intermediate age, 12 mg, Day 1, read-out: AUC0-24, Mean (SD)): 2000 ng·h/mL
AUC(0-t) (12 mg, intermediate age, 12 mg, Day 1, read-out: AUClast, Mean (SD)): 1980 ng·h/mL
Cmax (12 mg, intermediate age, 12 mg, Day 1): 257 ng/mL
Vd/F (12 mg, intermediate age, 12 mg, Day 1, read-out: Vz/F, Mean (SD)): 201 L
Tmax (12 mg, intermediate age, 12 mg, Day 1, read-out: tmax, Mean (SD)): 2.5 h
Tmax (12 mg, intermediate age, 12 mg, Day 1, read-out: tmax, Median): 2.5 h
AUC(0-t) (12 mg, intermediate age, 12 mg, Day 7, read-out: AUC0-24, Mean (SD)): 3840 ng·h/mL
AUC(0-inf) [2]: 8100 ng·h/mL
AUC(0-t) (12 mg, intermediate age, 12 mg, Day 7, read-out: AUClast, Mean (SD)): 7470 ng·h/mL
Cmax [2]: 360 ng/mL
Vd/F (12 mg, intermediate age, 12 mg, Day 7, read-out: Vss/F, Mean (SD)): 121 L
half-life (12 mg, intermediate age, 12 mg, Day 7, read-out: t1/2, Mean (SD) (converted)): 26.1 h
Tmax (12 mg, intermediate age, 12 mg, Day 7, read-out: tmax, Mean (SD)): 1.83 h
Tmax (12 mg, intermediate age, 12 mg, Day 7, read-out: tmax, Median): 1.5 h
